According to patent US10342774B2, “Topical pharmaceutical composition of acitretin” (priority 2013, dated 2019):
Values after ≈ are worked out from the molar mass of the structure shown.

Assay: physchem
Conditions: 25 °C, organic solvent or mixture, thermodynamic from solid
Method: The saturation solubility of acitretin was determined by adding an excess amount of acitretin in a conical flask containing a mixture of diethylene glycol monoethyl ether, dimethyl isosorbide, and polysorbate 80, present in a w/w ratio of 3.3:24.1:1. The mixture was kept in a shaking water bath for 24 hours at 25° C.

COc1cc(C)c(/C=C/C(C)=C/C=C/C(C)=C/C(=O)O)c(C)c1C [acitretin, all-trans-9-(4-methoxy-2,3,6-trimethylphenyl)-3,7-dimethyl-2,4,6,8-nonatetraenoic acid]
solubility at 24 h: 2500 µg/mL (≈ 7.66 mM)
